Results on two compounds are retold here after paper PMC4078008, “Exploring metabolic engineering design principles for the photosynthetic production of lactic acid by Synechocystis sp. PCC6803” (Biotechnology for Biofuels, 2014).

Assay [1] has as its target T1, L-LDH of L. lactis (LlLDH) (Lactococcus cremoris, UniProt A2RKA4).
T1 construct: full-length, codon-optimized gene expressed in Synechocystis sp; PCC6803; cell-free extract
T1 sequence (A2RKA4 1-325): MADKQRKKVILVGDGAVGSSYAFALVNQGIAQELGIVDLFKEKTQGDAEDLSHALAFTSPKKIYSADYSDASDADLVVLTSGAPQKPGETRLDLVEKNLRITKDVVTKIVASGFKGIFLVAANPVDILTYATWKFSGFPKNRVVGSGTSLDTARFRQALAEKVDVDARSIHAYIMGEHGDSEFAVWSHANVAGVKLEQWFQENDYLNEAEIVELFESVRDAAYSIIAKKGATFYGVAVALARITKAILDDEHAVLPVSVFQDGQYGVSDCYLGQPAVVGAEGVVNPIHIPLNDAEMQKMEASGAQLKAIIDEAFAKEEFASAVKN
Briefly: NAD(P)H consumption at […] nm in cell-free extract. The format is biochemical. The settings on record: 100 mM Tris-HCl pH 7.2, 2.5 mM MgCl2, 3 mM FBP, 300 uM NADH, 30 mM pyruvate, 30 °C.

Another assay deals with T2, PK-F of E. coli (Escherichia coli, UniProt P0AD61).
T2 construct: gene pykF; codon-optimized gene expressed in Synechocystis sp; PCC6803 (strain SYW004); cell-free extract
Description: LDH-coupled PK assay in cell-free extract with and without FBP. The settings on record: activator; 3 mM FBP, 50 mM Tris-HCl pH 7.6, 5 mM MgCl2, 100 mM KCl, 0.6 mM ADP, 5 mM PEP, 30 °C. It is filed as biochemical.

T2 sequence (P0AD61 whole entry): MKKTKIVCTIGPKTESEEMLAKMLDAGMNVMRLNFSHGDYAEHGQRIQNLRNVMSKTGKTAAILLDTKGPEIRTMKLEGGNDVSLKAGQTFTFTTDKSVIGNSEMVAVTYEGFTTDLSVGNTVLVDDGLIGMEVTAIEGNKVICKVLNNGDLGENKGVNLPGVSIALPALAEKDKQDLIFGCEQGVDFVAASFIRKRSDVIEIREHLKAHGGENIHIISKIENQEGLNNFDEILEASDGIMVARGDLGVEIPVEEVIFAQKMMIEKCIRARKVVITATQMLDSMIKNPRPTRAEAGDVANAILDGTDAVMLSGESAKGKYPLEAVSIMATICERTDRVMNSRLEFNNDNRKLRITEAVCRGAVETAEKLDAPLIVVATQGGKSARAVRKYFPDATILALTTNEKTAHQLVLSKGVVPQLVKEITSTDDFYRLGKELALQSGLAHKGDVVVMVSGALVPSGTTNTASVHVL

For the compound `NC(=O)C1=CN([C@@H]2O[C@H](COP(=O)(O)OP(=O)(O)OC[C@H]3O[C@@H](n4cnc5c(N)ncnc54)[C@H](O)[C@@H]3O)[C@@H](O)[C@H]2O)C=CC1` [NADH], the relative activity entry in assay [1] is “Both show similar activity for NADH (Figure 5C) and similar expression levels”. Consider `O=P(O)(O)OC[C@H]1OC(O)(COP(=O)(O)O)[C@@H](O)[C@@H]1O` (some centres unmarked) [FBP], for which the “relative activity with and without FBP” value on PK-F of E. coli is listed as “The activity assays confirmed the FBP dependency of the selected PK-F enzymes”.
